The target of test [1] is T1, α1β3 GABAA receptor (β3 subunit) (Homo sapiens, UniProt P14867+P28472).
T1 sequence (P28472 26-473): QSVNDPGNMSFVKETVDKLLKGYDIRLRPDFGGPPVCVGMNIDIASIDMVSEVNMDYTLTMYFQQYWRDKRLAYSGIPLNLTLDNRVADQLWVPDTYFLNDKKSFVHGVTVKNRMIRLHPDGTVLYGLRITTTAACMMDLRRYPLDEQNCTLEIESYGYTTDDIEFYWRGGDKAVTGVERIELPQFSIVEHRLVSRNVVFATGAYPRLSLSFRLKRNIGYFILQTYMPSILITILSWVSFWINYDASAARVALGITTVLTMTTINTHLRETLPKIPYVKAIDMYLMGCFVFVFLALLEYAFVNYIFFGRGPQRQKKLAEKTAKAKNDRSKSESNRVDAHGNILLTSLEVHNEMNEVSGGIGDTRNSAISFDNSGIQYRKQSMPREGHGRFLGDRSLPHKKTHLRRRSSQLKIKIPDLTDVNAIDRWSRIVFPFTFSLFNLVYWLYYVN
T1 sequence (P14867 28-456): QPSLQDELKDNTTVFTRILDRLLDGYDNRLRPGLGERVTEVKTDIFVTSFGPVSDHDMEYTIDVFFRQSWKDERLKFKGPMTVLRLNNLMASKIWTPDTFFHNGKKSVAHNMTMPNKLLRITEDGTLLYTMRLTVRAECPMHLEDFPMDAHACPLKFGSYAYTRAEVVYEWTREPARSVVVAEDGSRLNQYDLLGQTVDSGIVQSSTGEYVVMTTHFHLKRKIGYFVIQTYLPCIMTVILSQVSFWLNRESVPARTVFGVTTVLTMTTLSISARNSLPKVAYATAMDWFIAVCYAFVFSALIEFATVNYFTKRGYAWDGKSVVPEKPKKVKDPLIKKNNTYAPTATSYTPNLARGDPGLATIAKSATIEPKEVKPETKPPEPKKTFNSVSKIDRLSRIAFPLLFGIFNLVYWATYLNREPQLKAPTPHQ
The test can be described thus: competition of KK123, KK200 and KK202 photolabeling on β[…]; [3H]muscimol binding enhancement. More on the design: gene GABRB3; α1His-FLAG β3 receptor in HEK-293 cell membranes; with GABAA receptor α1 subunit (GABRA1).

In test [2] the target is T2, GABAA receptor α1 subunit (Homo sapiens, UniProt P14867).
T2 sequence (P14867 28-456): T1 sequence (P14867 28-456)
T2 sequence (P28472 26-473 partner): T1 sequence (P28472 26-473)
The test can be described thus: competition of KK123 photolabeling at α1-Y415; [3H]muscimol binding enhancement; oocyte electrophysiology with site mutants. More on the design: gene GABRA1; α1His-FLAG β3 receptor in HEK-293 cell membranes; with GABAA receptor β3 subunit (GABRB3).

Test [3] addresses T2, GABAA receptor α1 subunit. The test can be described thus: biochemical. More on the design: gene GABRA1.
The target in test [4] is T3, GABAA receptor β3 subunit (Homo sapiens, UniProt P28472).
T3 construct: gene GABRB3
Briefly: biochemical.

The target in test [5] is T4, GABAA receptor β3 subunit (Homo sapiens, UniProt P14867+P28472).
T4 construct: gene GABRB3; α1His-FLAG β3 receptor in HEK-293 cell membranes; adduct in TM3 peptide 280-313; with GABAA receptor α1 subunit (GABRA1)
T4 sequence (P28472 26-473): T1 sequence (P28472 26-473)
T4 sequence (P14867 28-456): T1 sequence (P14867 28-456)
Briefly: photoaffinity labeling with middle-down MS, competed by allopregnanolone; EC50 from [3H]muscimol binding enhancement (whole α[…]β[…] receptor).

In test [6] the target is T2, GABAA receptor α1 subunit. The test can be described thus: photoaffinity labeling ([…]) with middle-down MS; EC50 from [3H]muscimol binding enhancement (whole α[…]β[…] receptor). On the set-up: gene GABRA1; α1His-FLAG β3 receptor in HEK-293 cell membranes; adduct in TM4 peptide 398-423; with GABAA receptor β3 subunit (GABRB3).
For test [7], the target named is T5, GABAA receptor β3 subunit (Homo sapiens, UniProt P28472).
T5 construct: gene GABRB3; α1His-FLAG β3 receptor in HEK-293 cell membranes; adduct in TM3 peptide 278-313; with GABAA receptor α1 subunit (GABRA1)
T5 sequence (P28472 26-473): T1 sequence (P28472 26-473)
T5 sequence (P14867 28-456 partner): T1 sequence (P14867 28-456)
The test can be described thus: photoaffinity labeling with middle-down MS, competed by allopregnanolone; EC50 from [3H]muscimol binding enhancement (whole α[…]β[…] receptor).

In test [8] the target is T1, α1β3 GABAA receptor (β3 subunit). Briefly: two-electrode voltage clamp, potentiation and direct activation. The format is cell-based. On the set-up: gene GABRB3; α1β3 receptors expressed in X. laevis oocytes; with GABAA receptor α1 subunit (GABRA1).

For the compound `CC(=O)[C@H]1CC[C@H]2[C@@H]3CC[C@H]4C[C@H](O)CC[C@]4(C)[C@H]3CC[C@]12C` [AlloP, 3α-hydroxy-5α-pregnan-20-one], the EC50 in test [1] and in test [2] was 3.9 ± 5.6 µM in each case. With `C#CCCO[C@H]1C[C@]2(C)C3CC[C@@]4(C)C(CC[C@@H]4OC)C3CC3(N=N3)C2C[C@@H]1O` (some centres unmarked) [KK123], the EC50 in test [3] and in test [4] was 1.6 ± 0.2 µM in each case. On to `C[C@]12CC[C@@H](O)CC1CCC1C2CC[C@@]2(C)C1CC[C@@H]2OCc1ccc(C2(C(F)(F)F)N=N2)cc1` (some centres unmarked) [KK200], for which the EC50 in test [5] and in test [6] was 0.54 ± 0.18 µM each time. On to `C#CCO[C@H]1CCC2C3CCC4C[C@H](OCc5ccc(C6(C(F)(F)F)N=N6)cc5)CC[C@]4(C)C3CC[C@@]21C` (some centres unmarked) [KK202], for which the concentration giving a half-maximal response (EC50) in test [7] worked out at 1.1 ± 0.27 µM. As for `CC(C)c1cccc(C(C)C)c1O` [propofol], the “two-electrode voltage clamp, potentiation and direct activation” value in test [8] was “Propofol action was not different between the mutant and wild-type receptors, indicating a selective effect on neurosteroid action”.

What is called EC50 is the concentration needed to bring the measured effect to its halfway point.

The record behind these values is article PMC6424464, “Multiple functional neurosteroid binding sites on GABAA receptors” (PLoS Biology, 2019).
